Reference: ChEMBL document CHEMBL1201862, “PubChem BioAssay data set” (2004)
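96-well plates; 48 h exposure; 5 concentrations. Endpoints by linear interpolation between flanking doses. Not reached: highest tested concentration assigned. Here, GI50 denotes the concentration required for 50% inhibition of growth.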 Active and inactive are the calls of the source. Rule as the data show it: active = GI50 up to about 1.1 µM and inactive = higher.

How the values were obtained:
Assay in all cases: NCI tumour cell line growth inhibition, 48 h
[1] = tested on: 786-0
[2] = tested on: COLO 205
[3] = tested on: DMS-273
[4] = tested on: HCC 2998
[5] = tested on: HCT-116
[6] = tested on: K562
[7] = tested on: KM12
[8] = tested on: MOLT-4
[9] = tested on: NCI-H226
[10] = tested on: OVCAR-8
[11] = tested on: SF-268
[12] = tested on: SK-MEL-2
[13] = tested on: SN12C
[14] = tested on: SW-620
[15] = tested on: UACC-257
[16] = tested on: DMS-114
[17] = tested on: OVCAR-4
[18] = tested on: RPMI-8226
[19] = tested on: Hs-578T
[20] = tested on: MDA-MB-435

Row | Structure (SMILES) | GI50 [1] | GI50 [2] | GI50 [3] | GI50 [4] | GI50 [5] | GI50 [6] | GI50 [7] | GI50 [8] | GI50 [9] | GI50 [10] | GI50 [11] | GI50 [12] | GI50 [13] | GI50 [14] | GI50 [15] | GI50 [16] | GI50 [17] | GI50 [18] | GI50 [19] | GI50 [20]
1 | COC(=O)C1(C(=O)OC)CC(=O)c2cc3c(cc2-c2c(cc(OC)c(OC)c2OC)C1)OCO3 | > 211 µM (inactive) | 183 µM (inactive) | 124 µM (inactive) | > 211 µM (inactive) | 111 µM (inactive) | 139 µM (inactive) | 71.6 µM (inactive) | 83.6 µM (inactive) | 95.5 µM (inactive) | 139 µM (inactive) | > 211 µM (inactive) | > 211 µM (inactive) | > 211 µM (inactive) | > 211 µM (inactive) | 139 µM (inactive) | – | – | – | – | –
2 | C[Si](C)(C)/C=C/CCC(C=O)(CCCl)c1ccccc1 (centres undefined) | 16.3 µM (inactive) | 29.2 µM (inactive) | 19.4 µM (inactive) | 29.6 µM (inactive) | 14.1 µM (inactive) | 25 µM (inactive) | 26.7 µM (inactive) | 16.3 µM (inactive) | – | 27.7 µM (inactive) | 31.7 µM (inactive) | 14.8 µM (inactive) | 31.4 µM (inactive) | 28.6 µM (inactive) | 26.2 µM (inactive) | 19.5 µM (inactive) | – | – | – | –
3 | Clc1ccc2c(Cl)ncnc2c1 | > 100 µM (inactive) | > 100 µM (inactive) | > 100 µM (inactive) | > 100 µM (inactive) | > 100 µM (inactive) | > 100 µM (inactive) | > 100 µM (inactive) | > 100 µM (inactive) | 32.7 µM (inactive) | > 100 µM (inactive) | > 100 µM (inactive) | > 100 µM (inactive) | > 100 µM (inactive) | > 100 µM (inactive) | > 100 µM (inactive) | – | > 100 µM (inactive) | > 100 µM (inactive) | – | –
4 | Cc1cccc(-c2nnc3s/c(=C\c4ccc(N(C)C)cc4)c(=O)n23)c1 | > 100 µM (inactive) | > 100 µM (inactive) | > 100 µM (inactive) | > 100 µM (inactive) | > 100 µM (inactive) | > 100 µM (inactive) | > 100 µM (inactive) | > 100 µM (inactive) | > 100 µM (inactive) | > 100 µM (inactive) | > 100 µM (inactive) | > 100 µM (inactive) | > 100 µM (inactive) | > 100 µM (inactive) | > 100 µM (inactive) | – | > 100 µM (inactive) | > 100 µM (inactive) | – | –
5 | CC1=Nc2ccccc2C1C(Cc1ccccc1N)c1c(C)[nH]c2ccccc12 (centres undefined) | 15.1 µM (inactive) | 16.6 µM (inactive) | – | 15.4 µM (inactive) | 16.9 µM (inactive) | 19.5 µM (inactive) | 16.6 µM (inactive) | 20.9 µM (inactive) | 15 µM (inactive) | 16.6 µM (inactive) | 8.17 µM (inactive) | 5.92 µM (inactive) | 18.7 µM (inactive) | 15.5 µM (inactive) | 17.8 µM (inactive) | 19.2 µM (inactive) | – | 18.5 µM (inactive) | – | –
6 | O=C(Oc1ccc2c(-c3ccccc3)c(C(=O)Nc3ccc(Cl)cc3)c(=O)oc2c1)c1ccccc1 | > 100 µM (inactive) | > 100 µM (inactive) | > 100 µM (inactive) | – | > 100 µM (inactive) | > 100 µM (inactive) | > 100 µM (inactive) | 74.1 µM (inactive) | > 100 µM (inactive) | > 100 µM (inactive) | – | > 100 µM (inactive) | > 100 µM (inactive) | > 100 µM (inactive) | > 100 µM (inactive) | 65.3 µM (inactive) | – | > 100 µM (inactive) | – | –
7 | COC1=CC(=O)[C@]2(C)[C@H](C1=O)C(C)[C@H]2c1ccc(OC)cc1 (some centres undefined) | > 100 µM (inactive) | > 100 µM (inactive) | > 100 µM (inactive) | > 100 µM (inactive) | – | > 100 µM (inactive) | > 100 µM (inactive) | > 100 µM (inactive) | > 100 µM (inactive) | > 100 µM (inactive) | > 100 µM (inactive) | > 100 µM (inactive) | – | > 100 µM (inactive) | 91.6 µM (inactive) | – | > 100 µM (inactive) | > 100 µM (inactive) | – | –
8 | COC(=O)C1=C(C(=O)OC)C(C(=O)OC)C(C(=O)OC)=C1C(=O)OC | > 100 µM (inactive) | > 100 µM (inactive) | > 100 µM (inactive) | > 100 µM (inactive) | – | > 100 µM (inactive) | > 100 µM (inactive) | > 100 µM (inactive) | – | > 100 µM (inactive) | > 100 µM (inactive) | > 100 µM (inactive) | > 100 µM (inactive) | > 100 µM (inactive) | > 100 µM (inactive) | > 100 µM (inactive) | > 100 µM (inactive) | > 100 µM (inactive) | – | –
9 | O[C@H]1[C@H]2c3cc4c(cc3CN3CCC(=C[C@@H]1O)[C@H]23)OCO4 [LYCORINE] | 3.1 µM (inactive) | 1.25 µM (inactive) | – | 2.33 µM (inactive) | 1.26 µM (inactive) | 1.2 µM (inactive) | 2.7 µM (inactive) | 1.29 µM (inactive) | 2.76 µM (inactive) | 1.53 µM (inactive) | 0.802 µM (active) | 0.376 µM (active) | 1.7 µM (inactive) | 2.61 µM (inactive) | 0.65 µM (active) | – | 1.34 µM (inactive) | 2.01 µM (inactive) | 2.91 µM (inactive) | 2.07 µM (inactive)
